Results on five compounds are retold here after patent US12391737B2, “Soluble NPY2 receptor agonists” (Boehringer Ingelheim International GmbH, priority 2020, dated 2025).

Data set [1] concerns the target T1, Human Neuropeptide Y2 Receptor (Homo sapiens, UniProt P49146).
T1 construct: purchased CHEMICON HTS066M
T1 sequence (P49146 1-381): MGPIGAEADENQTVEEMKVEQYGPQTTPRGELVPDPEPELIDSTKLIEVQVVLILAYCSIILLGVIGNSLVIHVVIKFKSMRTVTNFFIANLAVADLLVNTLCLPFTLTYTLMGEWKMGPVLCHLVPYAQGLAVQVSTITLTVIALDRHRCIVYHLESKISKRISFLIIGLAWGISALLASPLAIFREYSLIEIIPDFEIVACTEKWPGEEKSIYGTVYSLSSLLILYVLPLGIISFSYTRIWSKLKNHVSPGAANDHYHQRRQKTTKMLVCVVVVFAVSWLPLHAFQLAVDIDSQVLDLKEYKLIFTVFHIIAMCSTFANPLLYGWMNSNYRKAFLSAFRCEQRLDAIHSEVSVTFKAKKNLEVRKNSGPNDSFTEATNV
The data set is described as follows: Radioligand binding competition assay (RLB). Conditions: Table 3, 125I-PYY(1-36) competition; read-out: Ki. The procedure, abridged:
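Displacement of radioligand is measured after 2 h at room temperature with receptor membranes in Mg2+/Ca2+ HEPES buffer, pH 7.4. Filter-bound radioactivity is counted and IC50 obtained from curve fitting.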

A short description of data set [2]: Solubility determination. The following applies: for Sol6: pH 6; for Sol7: pH 7. The procedure, abridged:
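Solubility is derived from the ratio of reversed-phase peak areas, filtered sample over a control dissolved at 1 mg/ml in 50% acetonitrile. Peptides are agitated for 2 hours at room temperature in 0.1 M sodium diphosphate at pH 6.4 or 7.0, aiming at 10 mg/ml.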

*1 amine or outer side, *2 acyl side, *3 side chain or, on linkers, in order; H or OH if unused. Where a SMILES comes first, the peptide text is derived from it. Side-chain parts run from the residue outwards. The star is where a group is joined. C18 diacid = O=C(O)CCCCCCCCCCCCCCCCC(=O)*; γGlu = O=C(O)[C@H](CCC(=O)[*:2])N[*:1]; Isovaleryl = CC(C)CC(=O)*; Ahx = NCCCCCC(=O)O

For `CC[C@H](C)[C@H](NC(=O)[C@H](Cc1ccc(O)cc1)NC(=O)[C@H](Cc1ccc(O)cc1)NC(=O)[C@H](CCCNC(=N)N)NC(=O)[C@H](CCC(N)=O)NC(=O)[C@H](CC(C)C)NC(=O)[C@H](CCC(=O)O)NC(=O)[C@H](CCC(=O)O)NC(=O)[C@@H]1CCCN1C(=O)[C@@H](NC(=O)[C@H](C)NC(=O)[C@H](CC(=O)O)NC(=O)[C@H](CCC(=O)O)NC(=O)[C@H](CCC(=O)O)NC(=O)[C@@H]1CCCN1C(=O)[C@H](CCCCNC(=O)CCCCCNC(=O)CC[C@H](NC(=O)CCCCCCCCCCCCCCCCC(=O)O)C(=O)O)NC(=O)[C@H](C)NC(=O)[C@@H]1CCCN1C(=O)[C@H](C)NC(=O)CC(C)C)[C@@H](C)O)C(=O)N[C@@H](CO)C(=O)N[C@@H](CC(C)C)C(=O)N[C@@H](CCCNC(=N)N)C(=O)N[C@@H](Cc1c[nH]cn1)C(=O)N[C@@H](Cc1ccc(O)cc1)C(=O)N[C@@H](Cc1ccc(O)cc1)C(=O)N[C@@H](CC(N)=O)C(=O)N[C@@H](Cc1c[nH]c2ccccc12)C(=O)N[C@@H](CC(C)C)C(=O)N[C@H](C(=O)N[C@@H](CCCNC(=N)N)C(=O)N[C@@H](CCC(N)=O)C(=O)N[C@@H](CCCNC(=N)N)C(=O)N[C@@H](Cc1ccc(O)cc1)C(N)=O)[C@@H](C)O` [Compound 190, N{alpha-4}-(3-methylbutanoyl)-N{epsilon-7}-(6-[(4S)-4-carboxy-4-(17-carboxyheptadecanamido)butanamido]hexanoyl)-[4A,6A,7K,9E,13T,18Q,22I,28Y,30W,31L]-hPYY(4-36)], in data set [1], the Ki (as a rule, a dissociation constant, usually derived from enzyme kinetics or from competition with a known ligand) came to 1.95 nM. Besides, in data set [2], the “Sol6” value is 8.4 mg/mL and the “Sol7” value came to 8.4 mg/mL.
Consider `CC[C@H](C)[C@H](NC(=O)[C@H](CCC(=O)O)NC(=O)[C@H](CCC(=O)O)NC(=O)[C@@H]1CCCN1C(=O)[C@@H](NC(=O)[C@H](C)NC(=O)[C@H](CC(=O)O)NC(=O)[C@H](CCC(=O)O)NC(=O)[C@H](CCC(=O)O)NC(=O)[C@@H]1CCCN1C(=O)[C@H](CCCCNC(=O)CCCCCNC(=O)CC[C@H](NC(=O)CCCCCCCCCCCCCCCCC(=O)O)C(=O)O)NC(=O)[C@H](CCC(=O)O)NC(=O)[C@@H]1CCCN1C(=O)[C@H](C)NC(=O)CC(C)C)[C@@H](C)O)C(=O)N[C@@H](CCC(N)=O)C(=O)N[C@@H](CCCNC(=N)N)C(=O)N[C@@H](Cc1ccc(O)cc1)C(=O)N[C@@H](Cc1ccc(O)cc1)C(=O)N[C@@H](CCC(=O)O)C(=O)N[C@@H](CO)C(=O)N[C@@H](CC(C)C)C(=O)N[C@@H](CCCNC(=N)N)C(=O)N[C@@H](Cc1c[nH]cn1)C(=O)N[C@@H](Cc1ccc(O)cc1)C(=O)N[C@@H](Cc1ccc(O)cc1)C(=O)N[C@@H](CC(N)=O)C(=O)N[C@@H](Cc1c[nH]c2ccccc12)C(=O)N[C@@H](CC(C)C)C(=O)N[C@H](C(=O)N[C@@H](CCCNC(=N)N)C(=O)N[C@@H](CCC(N)=O)C(=O)N[C@@H](CCCNC(=N)N)C(=O)N[C@@H](Cc1ccc(O)cc1)C(N)=O)[C@@H](C)O` [Compound 191, N{alpha-4}-(3-methylbutanoyl)-N{epsilon-7}-(6-[(4S)-4-carboxy-4-(17-carboxyheptadecanamido)butanamido]hexanoyl)-[4A,7K,9E,13T,17I,18Q,22E,28Y,30W,31L]-hPYY(4-36)], for which the Ki in data set [1] worked out at 8.32 nM. Besides, in data set [2], the “Sol6” value is greater than 10.0 mg/mL and the “Sol7” value is greater than 10.0 mg/mL.
On to `CC(C)CC(=O)N[C@@H](C)C(=O)N1CCC[C@H]1C(=O)N[C@@H](CCC(=O)O)C(=O)N[C@@H](CCCCNC(=O)CCCCCNC(=O)CC[C@H](NC(=O)CCCCCCCCCCCCCCCCC(=O)O)C(=O)O)C(=O)N1CCC[C@H]1C(=O)N[C@@H](CCC(=O)O)C(=O)N[C@@H](C)C(=O)N1CCC[C@H]1C(=O)N[C@@H](C)C(=O)N[C@@H](CO)C(=O)N1CCC[C@H]1C(=O)N[C@@H](CCC(=O)O)C(=O)N[C@@H](CCC(=O)O)C(=O)N[C@@H](CC(C)C)C(=O)N[C@@H](CCC(N)=O)C(=O)N[C@@H](CCCNC(=N)N)C(=O)N[C@@H](Cc1ccc(O)cc1)C(=O)N[C@@H](Cc1ccc(O)cc1)C(=O)N[C@H](C(=O)N[C@@H](CO)C(=O)N[C@@H](CC(C)C)C(=O)N[C@@H](CCCNC(=N)N)C(=O)N[C@@H](Cc1c[nH]cn1)C(=O)N[C@@H](Cc1ccc(O)cc1)C(=O)N[C@@H](Cc1ccc(O)cc1)C(=O)N[C@@H](CC(N)=O)C(=O)N[C@@H](Cc1c[nH]c2ccccc12)C(=O)N[C@@H](CC(C)C)C(=O)N[C@H](C(=O)N[C@@H](CCCNC(=N)N)C(=O)N[C@@H](CCC(N)=O)C(=O)N[C@@H](CCCNC(=N)N)C(=O)N[C@@H](Cc1ccc(O)cc1)C(N)=O)[C@@H](C)O)C(C)C` [Compound 192, N{alpha-4}-(3-methylbutanoyl)-N{epsilon-7}-(6-[(4S)-4-carboxy-4-(17-carboxyheptadecanamido)butanamido]hexanoyl)-[4A,7K,9E,10A,11P,18Q,22V,28Y,30W,31L]-hPYY(4-36)] (Isovaleryl-APEK([Ahx-γGlu-C18 diacid])PEAPASPEELQRYYVSLRHYYNWLTRQRY-NH2), for which, in data set [1], the Ki was found to be 0.74 nM. Also, in data set [2], the “Sol6” value is 0.0 mg/mL and the “Sol7” value was 9.0 mg/mL.
The corresponding values for `CC[C@H](C)[C@H](NC(=O)[C@H](CCC(=O)O)NC(=O)[C@H](CCC(=O)O)NC(=O)[C@@H]1CCCN1C(=O)[C@H](CCC(=O)O)NC(=O)[C@H](C)NC(=O)[C@H](CC(=O)O)NC(=O)[C@H](C)NC(=O)[C@H](CCC(=O)O)NC(=O)[C@@H]1CCCN1C(=O)[C@H](CCCCNC(=O)CCCCCNC(=O)CC[C@H](NC(=O)CCCCCCCCCCCCCCCCC(=O)O)C(=O)O)NC(=O)[C@H](C)NC(=O)[C@@H]1CCCN1C(=O)[C@H](C)NC(=O)CC(C)C)C(=O)N[C@@H](CCC(N)=O)C(=O)N[C@@H](CCCNC(=N)N)C(=O)N[C@@H](Cc1ccc(O)cc1)C(=O)N[C@@H](Cc1ccc(O)cc1)C(=O)N[C@H](C(=O)N[C@@H](CO)C(=O)N[C@@H](CC(C)C)C(=O)N[C@@H](CCCNC(=N)N)C(=O)N[C@@H](Cc1c[nH]cn1)C(=O)N[C@@H](Cc1ccc(O)cc1)C(=O)N[C@@H](Cc1ccc(O)cc1)C(=O)N[C@@H](CC(N)=O)C(=O)N[C@@H](Cc1c[nH]c2ccccc12)C(=O)N[C@@H](CC(C)C)C(=O)N[C@H](C(=O)N[C@@H](CCCNC(=N)N)C(=O)N[C@@H](CCC(N)=O)C(=O)N[C@@H](CCCNC(=N)N)C(=O)N[C@@H](Cc1ccc(O)cc1)C(N)=O)[C@@H](C)O)C(C)C` [Compound 198, N{alpha-4}-(3-methylbutanoyl)-N{epsilon-7}-(6-[(4S)-4-carboxy-4-(17-carboxyheptadecanamido)butanamido]hexanoyl)-[4A,6A,7K,9E,10A,13E,17I,18Q,22V,28Y,30W,31L]-hPYY(4-36)] are 1.38 nM, greater than 10.0 mg/mL and greater than 10.0 mg/mL.
The corresponding values for `CC(C)CC(=O)N[C@@H](C)C(=O)N1CCC[C@H]1C(=O)N[C@@H](C)C(=O)N[C@@H](CCCCNC(=O)CCCCCNC(=O)CC[C@H](NC(=O)CCCCCCCCCCCCCCCCC(=O)O)C(=O)O)C(=O)N1CCC[C@H]1C(=O)N[C@@H](CCC(=O)O)C(=O)N[C@@H](CCC(=O)O)C(=O)N[C@@H](CCC(=O)O)C(=O)N[C@@H](C)C(=O)N[C@@H](CO)C(=O)N1CCC[C@H]1C(=O)N[C@@H](CCC(=O)O)C(=O)N[C@@H](CCC(=O)O)C(=O)N[C@@H](CC(C)C)C(=O)N[C@@H](CCC(N)=O)C(=O)N[C@@H](CCCNC(=N)N)C(=O)N[C@@H](Cc1ccc(O)cc1)C(=O)N[C@@H](Cc1ccc(O)cc1)C(=O)N[C@H](C(=O)N[C@@H](CO)C(=O)N[C@@H](CC(C)C)C(=O)N[C@@H](CCCNC(=N)N)C(=O)N[C@@H](Cc1c[nH]cn1)C(=O)N[C@@H](Cc1ccc(O)cc1)C(=O)N[C@@H](Cc1ccc(O)cc1)C(=O)N[C@@H](CC(N)=O)C(=O)N[C@@H](Cc1c[nH]c2ccccc12)C(=O)N[C@@H](CC(C)C)C(=O)N[C@H](C(=O)N[C@@H](CCCNC(=N)N)C(=O)N[C@@H](CCC(N)=O)C(=O)N[C@@H](CCCNC(=N)N)C(=O)N[C@@H](Cc1ccc(O)cc1)C(N)=O)[C@@H](C)O)C(C)C` [Compound 199, N{alpha-4}-(3-methylbutanoyl)-N{epsilon-7}-(6-[(4S)-4-carboxy-4-(17-carboxyheptadecanamido)butanamido]hexanoyl)-[4A,6A,7K,9E,11E,18Q,22V,28Y,30W,31L]-hPYY(4-36)] are 2.87 nM, 9.0 mg/mL and 9.1 mg/mL.
